Assay type in all cases: biochemical
In one test the target is T1, p38σ MAPK (Homo sapiens, UniProt O15264).
T1 sequence (O15264 1-365): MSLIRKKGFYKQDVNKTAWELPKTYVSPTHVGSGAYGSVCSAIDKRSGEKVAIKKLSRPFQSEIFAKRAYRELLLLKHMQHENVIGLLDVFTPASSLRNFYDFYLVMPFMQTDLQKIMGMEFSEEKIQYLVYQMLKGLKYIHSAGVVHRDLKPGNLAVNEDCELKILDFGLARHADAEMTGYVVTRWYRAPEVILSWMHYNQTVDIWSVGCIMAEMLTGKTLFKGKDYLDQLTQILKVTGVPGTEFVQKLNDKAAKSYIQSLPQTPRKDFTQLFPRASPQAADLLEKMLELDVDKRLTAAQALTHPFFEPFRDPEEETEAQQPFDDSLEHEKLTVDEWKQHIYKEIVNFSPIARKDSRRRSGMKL
As to the kind of experiment: Kinase screen: SAPK 4/p38d assay. As to the method: (§1) Generally, the same procedure was used for all assays. Since the total assay volume was 25.5 microliters, 0.5 microliters of inhibitors at 51× assay concentration were added to the plates before any other addition.
(§2) The basic procedure was to add 0.5 microliters inhibitor/control in DMSO to plate. Fifteen microliters of enzyme/substrate/buffer mix were added and incubated for 5 min. Ten microliters MgATP at the relevant concentration were added and incubated for 30 min. The assay was stopped by adding 5 microliters of 3% orthophosphoric acid. The assay was transferred to a p81 filter plate and read in a scintillation counter of 30 sec/well. Note that this assay procedure was not followed for MKK1, which instead involved a two-step assay, and PKC alpha, which required the addition of lipid vesicles.
SAPK 4/p38d assay: SAPK 4/p38d (5-20 mU diluted in 50 mM Tris pH 7.5, 0.1 mM EGTA, 0.1 mM Na3VO4, 0.1% b-mercaptoethanol, 1 mg/ml BSA) was assayed against MBP in a final volume of 25.5 μl containing 25 mM Tris pH 7.5, 0.1 mM EGTA, 0.33 mg/ml MBP, 10 mM magnesium acetate and 0.005 mM [33P-g-ATP] (50-1000 cpm/pmole) and incubated for 30 min at room temperature. Assays were stopped by addition of 5 μl of 0.5 M (3%) orthophosphoric acid and then harvested onto P81 Unifilter plates with a wash buffer of 50 mM orthophosphoric acid.

The next test addresses GSK3β (Homo sapiens, UniProt P49841). As to the kind of experiment: Kinase screen: GSK3b assay. As to the method:
as §1, §2
(50-1000 cpm/pmole) and incubated for 30 min at room temperature. Assays were stopped by addition of 5 μl of 0.5 M (3%) orthophosphoric acid and then harvested onto P81 Unifilter plates with a wash buffer of 50 mM orthophosphoric acid.

Another test addresses YES1 (Homo sapiens, UniProt P07947). As to the kind of experiment: Kinase screen: YES1 assay. The conditions noted are these: 10 micromolar compound; for remaining activity at 10 µM: read-out: mean activity remaining (as a percentage of the original activity), YES1. How it is done: as §1, §2
YES1 assay: YES1 (5-20 mU diluted in 50 mM Tris pH 7.5, 0.1 mM EGTA, 1 mg/ml BSA) was assayed against a substrate peptide (Poly Glut Tyr) in a final volume of 25.5 μl containing 50 mM Tris pH 7.5, 1 mg/ml substrate peptide, 10 mM magnesium acetate and 0.02 mM [33P-g-ATP] (50-1000 cpm/pmole) and incubated for 30 min at room temperature. Assays were stopped by addition of 5 μl of 0.5 M (3%) orthophosphoric acid and then harvested onto P81 Unifilter plates with a wash buffer of 50 mM orthophosphoric acid.

The target of a further test is T2, TBK1 (Homo sapiens, UniProt Q9UHD2).
T2 construct: DU12569
T2 sequence (Q9UHD2 1-729): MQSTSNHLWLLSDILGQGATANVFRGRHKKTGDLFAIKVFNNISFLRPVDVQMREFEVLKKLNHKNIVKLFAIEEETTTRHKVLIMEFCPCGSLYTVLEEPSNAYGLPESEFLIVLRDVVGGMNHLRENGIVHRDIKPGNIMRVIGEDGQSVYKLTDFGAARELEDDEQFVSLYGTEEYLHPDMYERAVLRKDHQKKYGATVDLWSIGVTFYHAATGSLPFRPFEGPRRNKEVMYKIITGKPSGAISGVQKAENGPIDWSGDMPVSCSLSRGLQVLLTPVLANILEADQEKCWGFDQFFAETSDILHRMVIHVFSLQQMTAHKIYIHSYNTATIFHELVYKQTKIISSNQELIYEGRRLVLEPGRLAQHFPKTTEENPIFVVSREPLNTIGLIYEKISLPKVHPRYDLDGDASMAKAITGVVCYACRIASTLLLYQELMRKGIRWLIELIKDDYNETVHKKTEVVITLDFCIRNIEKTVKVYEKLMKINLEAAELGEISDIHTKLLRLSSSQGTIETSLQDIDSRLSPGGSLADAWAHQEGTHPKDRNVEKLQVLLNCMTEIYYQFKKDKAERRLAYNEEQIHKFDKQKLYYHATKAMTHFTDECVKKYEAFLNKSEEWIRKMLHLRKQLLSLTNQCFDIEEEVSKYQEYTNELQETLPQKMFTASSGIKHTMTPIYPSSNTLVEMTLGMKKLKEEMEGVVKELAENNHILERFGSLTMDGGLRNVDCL
As to the kind of experiment: Kinase screen: TBK1 / TBK1 (DU12569) assay. As to conditions: 10 micromolar compound; for remaining activity at 10 µM: read-out: mean activity remaining (as a percentage of the original activity), TBK1. As to the method: as §1, §2
TBK1 assay: TBK1 (5-20 mU diluted in 50 mM Tris pH 7.5, 0.1 mM EGTA, 1 mg/ml BSA) was assayed against a substrate peptide ([…]) (SEQ ID NO: 31) in a final volume of 25.5 μl containing 50 mM Tris pH 7.5, 300 μM substrate peptide, 10 mM magnesium acetate and 0.05 mM [33P-g-ATP] (50-1000 cpm/pmole) and incubated for 30 min at room temperature. Assays were stopped by addition of 5 μl of 0.5 M (3%) orthophosphoric acid and then harvested onto P81 Unifilter plates with a wash buffer of 50 mM orthophosphoric acid.
TBK1 (DU12569) assay: TBK1 (DU12569) (5-20 mU diluted in 50 mM Tris pH 7.5, 0.1 mM EGTA, 1 mg/ml BSA) was assayed against a substrate peptide ([…]) (SEQ ID NO: 37) in a final volume of 25.5 μl containing 50 mM Tris pH 7.5, 300 μM substrate peptide, 10 mM magnesium acetate and 0.05 mM [33P-g-ATP] (50-1000 cpm/pmole) and incubated for 30 min at room temperature. Assays were stopped by addition of 5 μl of 0.5 M (3%) orthophosphoric acid and then harvested onto P81 Unifilter plates with a wash buffer of 50 mM orthophosphoric acid.

[1] abbreviates: 10 micromolar compound, read-out: mean activity remaining (as a percentage of the original activity), p38s MAPK.
[2] abbreviates: 10 micromolar compound, read-out: mean activity remaining (as a percentage of the original activity), GSK 3b.

Like-named read-outs stand apart in the source and are kept apart here.

Sequence of GSK3β (P49841 whole entry, species assumed): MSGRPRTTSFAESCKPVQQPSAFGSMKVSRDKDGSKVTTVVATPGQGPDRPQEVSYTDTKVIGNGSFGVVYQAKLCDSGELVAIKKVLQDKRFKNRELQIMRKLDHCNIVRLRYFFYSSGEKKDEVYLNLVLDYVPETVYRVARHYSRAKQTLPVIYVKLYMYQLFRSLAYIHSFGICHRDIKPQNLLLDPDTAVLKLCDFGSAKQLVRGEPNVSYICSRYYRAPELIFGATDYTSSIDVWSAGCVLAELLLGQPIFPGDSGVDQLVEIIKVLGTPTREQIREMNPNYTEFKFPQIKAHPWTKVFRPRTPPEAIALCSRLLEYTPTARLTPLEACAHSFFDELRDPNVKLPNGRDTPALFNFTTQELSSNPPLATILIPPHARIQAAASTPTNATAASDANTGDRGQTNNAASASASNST
Sequence of YES1 (P07947 whole entry, species assumed): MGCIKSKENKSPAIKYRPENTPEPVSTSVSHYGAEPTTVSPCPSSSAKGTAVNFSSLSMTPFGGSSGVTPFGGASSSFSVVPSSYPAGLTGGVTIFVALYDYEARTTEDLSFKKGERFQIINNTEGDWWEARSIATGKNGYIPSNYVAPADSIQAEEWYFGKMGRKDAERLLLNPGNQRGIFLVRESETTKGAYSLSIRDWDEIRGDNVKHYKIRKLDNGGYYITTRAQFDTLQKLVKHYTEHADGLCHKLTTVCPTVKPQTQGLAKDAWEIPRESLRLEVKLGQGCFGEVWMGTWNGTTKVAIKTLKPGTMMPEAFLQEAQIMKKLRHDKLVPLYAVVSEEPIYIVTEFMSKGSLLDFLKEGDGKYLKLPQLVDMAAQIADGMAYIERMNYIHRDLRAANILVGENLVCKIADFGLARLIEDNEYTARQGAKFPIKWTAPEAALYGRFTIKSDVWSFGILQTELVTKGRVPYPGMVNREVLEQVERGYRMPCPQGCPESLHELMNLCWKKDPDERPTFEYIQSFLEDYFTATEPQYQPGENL

As to `CC(C)c1cnn2c(NCc3ccccc3F)cc(NCCCCCN)nc12` [ICEC-0232], the “mean activity remaining (as a percentage of the original activity), p38s MAPK” value at p38σ MAPK (10 micromolar compound) is 78%. For the same compound, the “mean activity remaining (as a percentage of the original activity), GSK 3b” value at GSK3β (10 micromolar compound) is 70%. Also, the “mean activity remaining (as a percentage of the original activity), YES1” value on YES1 is listed as 106%. The “mean activity remaining (as a percentage of the original activity), TBK1” value at TBK1 was 91%.
A word on the remaining activity: it is the signal under treatment as a percentage of the control signal. Take `CC[C@H](CO)Nc1cc(NCc2ccccc2)n2ncc(C(C)C)c2n1` [ICEC0067]: the remaining activity at 10 µM on p38σ MAPK (setting [1]) is 86%; on GSK3β (setting [2]), 72%; at YES1, 87%; on TBK1 it was 85%.
As to `CC(C)c1cnn2c(NCc3ccccc3)cc(NCCCCCCCN)nc12` [BS-181], the remaining activity at 10 µM on p38σ MAPK (p38σ MAPK, 10 μM, read-out: Mean Remaining Enzyme Activity (%)) is 96%; at GSK3β (GSK3β, 10 μM, read-out: Mean Remaining Enzyme Activity (%)) it was 112%.
Regarding `C=C[C@H](CO)Nc1cc(NCc2ccccc2)n2ncc(C(C)C)c2n1` [ICEC0065], the remaining activity at 10 µM at p38σ MAPK (setting [1]) is 86%; on GSK3β (setting [2]), 92%; on YES1 it was 90%; at TBK1 it was 83%.
On the same counts, the results for `CC(C)c1cnn2c(NCc3ccccc3)cc(N[C@@H](CO)[C@H](O)CO)nc12` [ICEC0318, (3S)-3-(7-(Benzylamino)-3-isopropylpyrazolo[1,5-a]pyrimidin-5-ylamino)butane-1,2,4-triol] are 86%, 63%, 89% and 87%.

For the origin of these results see patent US8067424B2, “Selective inhibitors for cyclin-dependent kinases” (Emory University, priority 2007, dated 2011).
